# Where two headings read alike, the source gives them in different places.
# B1: huEGFR-7R antibody (antibody, V domains shown)
# VH: QVQLVQSGAEVAKPGASVKLSCKASGYTFTSYWMQWVKQRPGQGLECIGTIYPGDGDTTYTQKFQGKATLTADKSSSTAYMQLSSLRSEDSAVYYCARYDAPGYAMDYWGQGTLVTVSS
# VL: DIQMTQSPSSLSASVGDRVTITCRASQDINNYLAWYQHKPGKGPKLLIHYTSTLHPGIPSRFSGSGSGRDYSFSISSLEPEDIATYYCLQYDNLLYTFGQGTKLEIKR
# Columns and labels:
# [1] = system: H2228 cells; assay: cytotoxic activity, H2228; type: cell-based; conditions: Homo sapiens, NCI-H2228
# Procedure: (§1) The cytotoxic assay was performed as follows.
# EML4-ALK gene translocation leads to a constitutive activation of ALK kinase and has been identified as a driver mutation in ˜5% of NSCLC adenocarcinoma (reviewed in Castro-Carpeno J. et al., Clin Transl Oncol. 13:774-779 (2011)). […] Unfortunately, ˜40% of EML4-ALK+ tumors are resistant to crizotinib. Additionally, tumors that are sensitive to crizotinib can rapidly develop resistance to the drug (Castro-Carpeno J. et al., Clin Transl Oncol. 13:774-779 (2011)).
# [2] = system: Parental HCC827 (Aichi) cells; assay: in vitro cytotoxicity assay, parental HCC827 (Aichi); type: cell-based
# Procedure: as §1
# (§2) The HCC827 ER cell line contains high MET gene copy number and the HCC827 EPR cell line carries T790M EGFR mutation (Suda K. et al. Clin Cancer Res 16: 5489 (2010)). These cell lines reflect the two major mechanisms of resistance against EGFR tyrosine kinase inhibitors (Sequist L. et al. Sci Transl Med 3: 75ra26 (2011)).
# [3] = system: HCC827 parental cell line; assay: Western blot after 16 hour erlotinib treatment, HCC827 parental; type: cell-based; conditions: erlotinib 16 hours
# [4] = system: HCC827-ER-E4 cell line; assay: Western blot after 16 hour erlotinib treatment, HCC827-ER-E4; type: cell-based; conditions: HCC827-ER-E4, erlotinib 16 hours
# [5] = system: HCC827-ER cell line; assay: in vitro cytotoxicity assay, HCC827-ER
# [6] = system: HCC827-ER-E4 cell line; assay: in vitro cytotoxicity assay, HCC827-ER-E4
# [7] = system: H226 cell line; conditions: H226, Yauch et al. 2005; cited from earlier work
# [8] = system: H2228 cells; conditions: H2228, Koivunen et al. 2008; cited from earlier work
# [9] = target: EGFR on parental HCC827 (Aichi) NSCLC cells (exon 19 deletion EGFR mutation) (UniProt P00533 25-1210); assay: cell-based or functional assay
# [10] = system: NCI-H1975 cell line; assay: in vitro cytotoxic assay (WST-8), NCI-H1975; type: cell-based
# Procedure: NCI-H1975 cell line is a NSCLC adenocarcinoma cell line that carries both sensitizing (L858R) and resistant (T790M) EGFR mutations (Cosmic database, Wellcome Trust Sanger Institute), thus it closely mimics the EGFR kinase inhibitor resistant tumors found in the clinical setting.
# as §1
# [11] = system: H226 cell line; assay: in vitro cytotoxic assay, H226; type: cell-based
# Procedure: as §1
# NSCLC cell lines with mesenchymal histology are generally more resistant to gefitinib than those with epithelial histology (Yauch R L. et al. Clin Cancer Res 11: 8686 (2005)). […] H226 cell line is a squamous cell carcinoma with mesenchymal histology.
# [12] = system: Detroit 562; assay: in vitro cytotoxicity assay, Detroit 562; type: cell-based; conditions: Detroit562
# [13] = system: HCC827 ER (Aichi) cells; assay: in vitro cytotoxicity assay, HCC827 ER (Aichi); type: cell-based
# Procedure: as §1, §2
# [14] = system: HCC827 EPR (Aichi) cells; assay: in vitro cytotoxicity assay, HCC827 EPR (Aichi); type: cell-based
# Procedure: as §1, §2
# [15] = system: HCC827-ER cell line
# [16] = system: HCC827-ER-E4 cell line
# [17] = system: HCC827 cell line; assay: in vitro cytotoxic assay, HCC827 in absence or presence of HGF
molecule,measurement,setting,value
C[C@@H](Oc1cc(-c2cnn(C3CCNCC3)c2)cnc1N)c1c(Cl)ccc(F)c1Cl [crizotinib],EC50,"[1]; H2228, EML4-ALK translocation, read-out: EC50",3.82 µM
C#Cc1cccc(Nc2ncnc3cc(OCCOC)c(OCCOC)cc23)c1 [erlotinib],sensitivity,[2],highly sensitive
same,EC50,[1],26.1 µM
same,AKT level,[3],reduced
same,AKT phosphorylation,[3],inhibited
same,EGFR phosphorylation,[3],completely inhibited
same,ERK1/2 phosphorylation,[3],inhibited
same,AKT level,[4],not changed
same,EGFR phosphorylation,[4],completely inhibited
same,ERK1/2 phosphorylation,[4],less impact
same,phospho AKT (pAKT) level,[4],little change
same,cytotoxic effect,[5],highly resistant
same,cytotoxic effect,[6],maintained erlotinib resistance
COc1cc2ncnc(Nc3ccc(F)c(Cl)c3)c2cc1OCCCN1CCOCC1 [gefitinib],resistance of cell line,[7],resistant
COc1cc(N2CCC(N3CCN(C)CC3)CC2)ccc1Nc1ncc(Cl)c(Nc2ccccc2S(=O)(=O)C(C)C)n1 [TAE684],resistance of cell line,[8],resistant
B1,"EC50, in vitro cytotoxicity (WST-8 cell viability) on parental HCC827 (Aichi) cells",[9],0.000426 µM
same,cytotoxic effect,[10],did not have any effect
same,effect on tumor cell growth,[11],neither the huEGFR-7R antibody nor cetuximab had effect
same,effect on tumor cell growth,[12],had no effect
same,sensitivity,[2],highly sensitive
same,sensitivity / resistance,[13],highly resistant
same,sensitivity / resistance,[14],highly resistant
same,cytotoxic effect,[15],little effect
same,cytotoxic effect,[16],little effect
same,cell growth inhibition,[17]; HCC827 + 50 ng/mL HGF,further reduced
same,cell growth inhibition,"[17]; HCC827, absence of HGF",marginal activities

# From US9233171B2, “Method of treatment of tumors that are resistant to EGFR antibody therapies by EGFR antibody cytotoxic agent conjugate” (ImmunoGen, Inc., priority 2011, dated 2016)
